Laboratory results taken from patent publication US10201158B2, “Plant disease control composition and method for controlling plant disease by application of same” (MITSUI CHEMICALS AGRO, INC., priority 2014, dated 2019).
Where two headings read alike, the source gives them in different places.

Legend:
[1] = tested on: Sphaerotheca fuliginea; experiment: Cucumber powdery mildew preventive test; assay type: in vivo
Method: In a greenhouse, cucumber (variety: Sagamihanshiro) planted in a plastic pot having a diameter of 5 cm was grown to the 3rd to 5th-leaf stage. Spray was carried out in the same manner as in Test example 1, and 3 days after the spray, a conidia suspension prepared from Sphaerotheca fuliginea were inoculated on the leaf surface. After inoculation, the pots were placed in a thermostatic greenhouse (20 to 25° C.), and controlling effects were examined after 7 days from the inoculation. In the examination, a ratio of lesion area occupied per one leaf of cucumber was determined according to the same index as in Test example 1, and the control value and the theoretical value according to Colby's formula were similarly calculated.
Wettable powder prepared in compliance with Comparative Preparation Example 4 containing the compounds indicated in Table 7-9 were sprayed to the cucumber leaves, a conidiospore suspension prepared from Sphaerotheca fuliginea was inoculated onto the plants, and the controlling effects were examined in a manner similar to Test Example 6.

[2] = tested on: Pyricularia oryzae; assay type: in vivo
[3] = tested on: Botrytis cinerea; conditions: in vivo
[4] = tested on: Phytophthora infestans; assay type: in vivo; conditions: 5 days after inoculation
[5] = Table 3-4, group b ingredient alone, treatment concentration 10 + 10 ppm
[6] = Table 3-5 (Comparative Example 2), treatment concentration 0.4 ppm
[7] = Table 3-2, treatment concentration 10 ppm
[8] = Table 3-3, treatment concentration 50 ppm
[9] = Table 3-4, group b ingredient alone, treatment concentration 10 + 2 ppm
[10] = Table 3-3, treatment concentration 10 ppm

| Compound | Preventive value [3] | Preventive value ([1]; in vivo) | other results |
| --- | --- | --- | --- |
| CSC(=O)c1cccc2nnsc12 [Acibenzolar-S-methyl (b-72), Acibenzolar-S-methyl] |  |  | Preventive value ([1]; Table 7-7, treatment concentration 2 ppm, 7 days after inoculation): 33; Preventive value [2, 5]: 60 |
| Cn1cc(C(=O)Nc2ccc(F)cc2-c2ccc(Cl)c(Cl)c2)c(C(F)F)n1 [Bixafen (b-4), Bixafen] | 33 |  | Preventive value [2, 5]: 33 |
| CCC1(C(=O)N[C@H](C)c2ccc(Cl)cc2)C(C)C1(Cl)Cl (some centres unmarked) [Carpropamid] | 17 | 33 | Preventive value [2, 6]: 67 |
| O=C(CO)[C@@H](O)[C@@H](O)[C@H](O)CO [D-tagatose (b-93), D-tagatose] | 33 | 33 | Preventive value ([4]; Table 6-3, treatment concentration 5000 ppm): 40 |
| C[C@@H](NC(=O)C(C#N)C(C)(C)C)c1ccc(Cl)cc1Cl (some centres unmarked) [Diclocymet] | 17 | 40 | Preventive value [2, 6]: 67 |
| CNC(=O)/C(=N/OC)c1ccccc1COc1cc(C)ccc1C [Dimoxystrobin (b-52), Dimoxystrobin] | 17 |  | Control value ([1]; in vivo): 60; Preventive value [2, 7]: 73 |
| N#Cc1sc2c(=O)c3ccccc3c(=O)c=2sc1C#N [Dithianon (b-81), Dithianon] | 33 |  | Preventive value ([4]; Table 6-3, treatment concentration 2 ppm): 33 |
| O=C(NCCc1ncc(C(F)(F)F)cc1Cl)c1ccccc1C(F)(F)F [Fluopyram (b-43), Fluopyram] | 40 |  | Preventive value [2, 5]: 40 |
| CO/N=C(/C1=NOCCO1)c1ccccc1Oc1ncnc(Oc2ccccc2Cl)c1F [Fluoxastrobin (b-51), Fluoxastrobin] | 40 |  | Control value ([1]; in vivo): 60; Preventive value [2, 7]: 60 |
| C[Si](Cn1cncn1)(c1ccc(F)cc1)c1ccc(F)cc1 [Flusilazole (b-31), Flusilazole] | 17 | 33 |  |
| COc1ccccc1N1CCS/C1=C(/C#N)Sc1cc(C(F)(F)F)ccc1F [Flutianil (b-77), Flutianil] | 17 | 67 |  |
| OC(Cn1cncn1)(c1ccc(F)cc1)c1ccccc1F (centres unmarked) [Flutriafol (b-34), Flutriafol] | 33 | 40 |  |
| O=C1c2ccccc2C(=O)N1SC(Cl)(Cl)Cl [Folpet (b-70), Folpet] | 73 | 33 |  |
| C=CCOC(Cn1ccnc1)c1ccc(Cl)cc1Cl (centres unmarked) [Imazalil (b-20), Imazalil] | 17 | 40 |  |
| CC(C)C1CCC(Cc2ccc(Cl)cc2)C1(O)Cn1cncn1 (centres unmarked) [Ipconazole (b-25), Ipconazole] | 40 | 50 |  |
| Cc1ccc(C(C)NC(=O)[C@@H](NC(=O)OC(C)C)C(C)C)cc1 (some centres unmarked) [Iprovalicarb (b-50), Iprovalicarb] |  |  | Preventive value ([4]; Table 6-2, treatment concentration 2 ppm): 50 |
| CC(C)OC(=O)C(C(=O)OC(C)C)=C1SCCS1 [Isoprothiolane (b-71), Isoprothiolane] |  | 40 | Preventive value [2, 8]: 50 |
| CC(C)C1C2CCC1c1c(NC(=O)c3cn(C)nc3C(F)F)cccc12 (centres unmarked) [Isopyrazam (b-7), Isopyrazam] | 40 |  | Control value ([1]; in vivo): 40 |
| N#Cc1ccccc1NC(=O)c1snc(Cl)c1Cl [Isotianil (b-46), Isotianil] |  |  | Preventive value [2, 5]: 50 |
| CC1(C)CCC(Cc2ccc(Cl)cc2)C1(O)Cn1cncn1 (centres unmarked) [Metconazole (b-26), Metconazole] | 40 | 50 |  |
| CNC(=O)/C(=N/OC)c1ccccc1Oc1ccccc1 [Metominostrobin (b-54), Metominostrobin] |  |  | Preventive value [2, 9]: 40 |
| COc1cc(C)c(C(=O)c2c(OC)ccc(Br)c2C)c(OC)c1OC [Metrafenone (b-82), Metrafenone] | 0 | 40 |  |
| CCCCC(C#N)(Cn1cncn1)c1ccc(Cl)cc1 (centres unmarked) [Myclobutanil (b-35), Myclobutanil] | 17 | 33 |  |
| CNC(=O)/C(=N/OC)c1ccccc1CO/N=C(C)/C(=N/OC)C(/C)=N/OC [Orysastrobin (b-53), Orysastrobin] | 47 |  | Control value ([1]; in vivo): 40; Preventive value [2, 7]: 60 |
| Cc1cc(C(F)(F)F)nn1CC(=O)N1CCC(c2nc(C3=NOC(c4c(F)cccc4F)C3)cs2)CC1 (centres unmarked) [Oxathiapiprolin (b-84), Oxathiapiprolin] | 33 | 17 | Preventive value ([4]; Table 6-3, treatment concentration 0.0016 ppm): 67 |
| CCn1cc(C(=O)O)c(=O)c2cc3c(cc21)OCO3 [Oxolinic acid] | 17 | 33 | Preventive value ([2]; Table 3-5 (Comparative Example 2), treatment concentration 50 ppm): 33 |

| Compound | Preventive value [3] | Preventive value ([1]; in vivo) | other results |
| --- | --- | --- | --- |
| O=C(Nc1ccccc1)N(Cc1ccc(Cl)cc1)C1CCCC1 [Pencycuron (b-76), Pencycuron] |  | 33 | Preventive value ([2]; Table 3-3, treatment concentration 250 ppm): 40 |
| Cc1nn(C)c(F)c1C(=O)Nc1ccccc1C(C)CC(C)C (centres unmarked) [Penflufen (b-5), Penflufen] | 47 |  | Control value ([1]; in vivo): 73 |
| OP(O)O [Phosphorous acid (b-105), Phosphorous acid] | 33 | 33 |  |
| CO/C=C(/C(=O)OC)c1ccccc1COc1cccc(C(F)(F)F)n1 [Picoxystrobin (b-16), Picoxystrobin] |  |  | Preventive value [2, 9]: 50 |
| C=CCOC1=NS(=O)(=O)c2ccccc21 [Probenazole (b-73), Probenazole] |  | 40 | Preventive value [2, 10]: 60 |
| CCCC1COC(Cn2cncn2)(c2ccc(Cl)cc2Cl)O1 (centres unmarked) [Propiconazole (b-27), Propiconazole] | 33 | 40 |  |
| CCCOc1nc2ccc(I)cc2c(=O)n1CCC [Proquinazid (b-100), Proquinazid] | 17 | 40 |  |
| OC(Cc1ccccc1Cl)(Cn1nc[nH]c1=S)C1(Cl)CC1 (centres unmarked) [Prothioconazole (b-23), Prothioconazole] | 33 |  | Preventive value [2, 5]: 33 |
| COC(=O)N(OC)c1ccccc1COc1ccn(-c2ccc(Cl)cc2)n1 [Pyraclostrobin (b-19), Pyraclostrobin] |  |  | Preventive value [2, 9]: 40 |
| Cc1cc(C)nc(Nc2ccccc2)n1 [Pyrimethanil (b-62), Pyrimethanil] | 33 |  | Preventive value ([2]; Table 3-4, group b ingredient alone, treatment concentration printed 10 + 50 ppm): 33 |
| COc1cc(C)c(C(=O)c2c(OC)ncc(Cl)c2C)c(OC)c1OC [Pyriofenone (b-83), Pyriofenone] | 33 | 40 |  |
| O=C1CCc2cccc3c2N1CC3 [Pyroquilon (b-104), Pyroquilon] |  | 7 | Preventive value [2, 8]: 67 |
| Fc1ccc(Oc2ccnc3cc(Cl)cc(Cl)c23)cc1 [Quinoxyfen (b-63), Quinoxyfen] | 17 | 60 |  |
| Cn1cc(C(=O)Nc2ccccc2C2CC2C2CC2)c(C(F)F)n1 (centres unmarked) [Sedaxane (b-6), Sedaxane] | 50 |  | Control value ([1]; in vivo): 40 |
| CCCN(CC)CC1COC2(CCC(C(C)(C)C)CC2)O1 (centres unmarked) [Spiroxamine (b-101), Spiroxamine] | 17 | 33 |  |
| S1SSSSSSS1 [Sulfur (b-96), Sulfur] | 0 | 73 |  |
| CC(=O)Oc1c(C)c(C)nc2c(F)cc(C(C)(C)C)cc12 [Tebufloquin (b-64), Tebufloquin] |  | 67 | Preventive value [2, 10]: 73 |
| FC(F)C(F)(F)OCC(Cn1cncn1)c1ccc(Cl)cc1Cl (centres unmarked) [Tetraconazole (b-22), Tetraconazole] | 40 | 50 |  |
| c1ccc2[nH]c(-c3cscn3)nc2c1 [Thiabendazole (b-60), Thiabendazole] | 57 | 40 |  |
| Cc1nc(C(F)(F)F)c(C(=O)Nc2c(Br)cc(OC(F)(F)F)cc2Br)s1 [Thifluzamide (b-42), Thifluzamide] | 23 |  | Control value ([1]; in vivo): 73 |
| Cc1ccc(NC(=O)c2snnc2C)cc1Cl [Tiadinil (b-45), Tiadinil] |  | 40 | Preventive value [2, 10]: 60 |
| COP(=S)(OC)Oc1c(Cl)cc(C)cc1Cl [Tolclofos-methyl] |  | 33 | Preventive value ([2]; in vivo): 33 |
| CC(C)(C)C(O)C(Oc1ccc(Cl)cc1)n1cncn1 (centres unmarked) [Triadimenol (b-33), Triadimenol] | 17 |  | Preventive value ([2]; Table 3-4, group b ingredient alone, treatment concentration printed 10 + 250 ppm): 33 |
| CCCCCCCCCCCCCN1CC(C)OC(C)C1 (centres unmarked) [Tridemorph (b-66), Tridemorph] | 17 | 33 |  |
| CON=C(C(=O)OC)c1ccccc1CON=C(C)c1cccc(C(F)(F)F)c1 [Trifloxystrobin (b-55), Trifloxystrobin] | 33 |  | Preventive value [2, 9]: 57 |
| Propineb [Propineb (b-69)] | 33 | 17 |  |
